# Experimental data: patent US20150313913A1, “POSITIVE ALLOSTERIC MODULATORS OF THE GABA-A RECEPTOR IN THE TREATMENT OF AUTISM” (UNIVERSITY OF WASHINGTON THROUGH ITS CENTER FOR …, priority 2013, published 2015)
# “Also recorded” adds a separate entry of the source.
# Legend:
# Scn1a+/− mice = experiment: Three-chamber social preference test; assay type: in vivo
# Source text: The mouse was allowed to freely explore each chamber. […] The recorded video file was further analyzed by off-line video tracking software (ETHOVISION™ XT 7.0). […] All data shown are means±s.e.m. and analyzed using two-way ANOVA with Bonferroni's post hoc analysis and one-way ANOVA with Tukey's post hoc analysis.
# Oral administration is specifically contemplated for the methods described herein, and is well known for both benzodiazepines and non-BDZ GABA-A enhancers as described herein.
# (§1) The test was performed as described previously (Han et al., 2012) with minor modifications. The threechamber apparatus is a non-transparent Plexiglas box (30×60 cm) with two transparent partitions that make left, center, and right chambers (30×20 cm). In the first 10-min session, a test mouse was placed in the center of the empty three-chamber unit to habituate the test mouse. The mouse was allowed to freely explore each chamber. In the second 10-min session, an age- and gender-matched same strain mouse that had never been exposed to the test mouse, was placed in one of the two wire cages. The empty wire cage as an inanimate object cue was placed on the other side. Then, the test mouse was placed again in the center, and allowed to freely explore the chamber for 10 min. Time spent in each chamber, and time spent within a 5 cm radius proximal to each wire cage, as a close interaction were measured by the videotracking software (EthoVision XT 8.5, Noldus Technology). All data shown are means±s.e.m. and analyzed using two-way ANOVA with Bonferroni's post hoc analysis and one-way ANOVA with Tukey's post hoc analysis.
# (§2) L-838,417, and DMCM (Sigma), dissolved in 100% DMSO (sterile, Sigma) was diluted in PBS (the final concentration of DMSO was ranged from 0.005% to 0.1%). Drugs were administered by an intraperitoneal injection in a volume of […] 30 min before the behavioral tests.
# BTBR mice [1] = experiment: Three-chamber social interaction test; details: for social interaction deficit: 0.05 mg/kg (low dose) 30 min before test; for effect on social interaction at doses above the maximally effective dose: higher doses; for dose of maximal effect on social interaction: i.p., 30 min before test; for social interaction (time with stranger mouse, close interaction), dose series: single i.p. injection 30 min before test, low/increasing doses
# Experimental: In the three-chamber test, a test mouse is placed in the center chamber, and the preference of the test mouse for interaction with an inanimate object (a small empty cage) in the left chamber vs. a stranger mouse in an identical cage in the right chamber using a digital camera and quantitative video-tracking analysis.
# as §1, §2
# C57BL/6J mice [2] = experiment: Three-chamber social interaction test; assay type: in vivo; details: for social interaction preference, Pre/CLZ/Post protocol: low dose (0.05 mg/kg), 0.05 mg/kg
# Source text: The mouse was allowed to freely explore each chamber.
# BTBR mice [3] = experiment: Context-dependent fear conditioning test; assay type: in vivo
# Source text: (§3) The contextual fear-conditioning chamber was a square arena (25×25 cm) with clear PLEXIGLAS™ walls and a metal grid floor connected to a circuit board that delivered shocks to the metal grid (COULBOURN INSTRUMENTS™). An analog camera was attached on top of the chamber. The camera and the circuit board were connected to a personal computer, and its software (FREEZE FRAME™ 2.0, ACTIMETRICS™) controlled the circuit and recorded the data. The chamber was cleaned with 70% ethanol and wiped with paper towels before each session. In the habituation session, a test mouse was placed in the chamber and allowed to explore for 2 min^66-69. Immediately after habituation, the test mouse received a single mild foot shock (2 s, 0.5 mA). After staying in the chamber one more min, the mouse was removed from the chamber. For the 30-min short-term memory test, the mouse was returned to the context 30 min after the end of the training session. For 24-hr long-term memory test, the mouse was returned to the context 24 hr after the training session. The movement of mice was also recorded by a USB webcam (LIFECAM™ HD-6000, MICROSOFT™) and PC-based video capture software (WINAVI™ Video Capture, ZJ MEDIA DIGITAL TECHNOLOGY™) for 2 min. The recorded video file was further analyzed by off-line video tracking software (ETHOVISION™ XT 7.0, NOLDUS TECHNOLOGY™). The freezing scores were calculated by dividing the test session into 1 min bouts and averaging together all 2 min for each animal. All data shown.
# (§4) Freezing behavior is defined as the period during which the velocity of the test mouse is less than 1.75 cm/s, and non-freezing behavior is defined as the period during which the velocity of the mouse is greater than 2 cm/s.
# C57BL/6J mice [4] = experiment: Context-dependent fear conditioning test; assay type: in vivo
# Source text: as §3, §4
# GABA-A receptor = details: cited from earlier work
compound,measurement,setting,value
O=C1CN=C(c2ccccc2Cl)c2cc([N+](=O)[O-])ccc2N1 [Clonazepam],"social interaction, 3-chamber social preference test","Scn1a+/− mice; single i.p. 0.0625 mg/kg 30 min before test, listed as CLZ, 0.0625 mg/kg",completely rescued; also recorded: completely restored; also recorded: completely recovered
same,social interaction deficit,BTBR mice [1],reversibly rescued; also recorded: improved
same,social interaction deficit,BTBR mice [1]; listed as CLZ,recover their preference
same,social interactions on Day 1 of repeated treatment,BTBR mice [1]; 0.05 mg/kg i.p. daily,significantly increased
same,social interactions after 14 days of repeated treatment,BTBR mice [1]; 0.05 mg/kg i.p. daily for 14 days,fully retained and even increased
same,sedation / total distance moved during the three-chamber test,BTBR mice [1]; dose range up to 0.5 mg/kg (clonazepam: test doses),did not cause sedation; also recorded: no sedation
same,improvement of social deficit: time of interaction with stranger mouse vs. novel object,BTBR mice [1]; dose series (FIG. 39D),strikingly dose-dependent
same,increase of time spent in the chamber containing the stranger mouse,BTBR mice [1]; doses from 0.00625 mg/kg to 0.05 mg/kg i.p.,approximately 2.5 fold
same,effect on social interaction at doses above the maximally effective dose,BTBR mice [1],not observed; also recorded: lost at higher doses
same,dose of maximal effect on social interaction,BTBR mice [1],0.05 mg/kg
same,tolerance to rescue of social interaction behavior,"BTBR mice [1]; repeated 0.05 mg/kg, 14 days",does not elicit tolerance
same,"social interaction (time with stranger mouse, close interaction), dose series",BTBR mice [1],rescued; also recorded: increased
same,time of interaction with stranger mouse vs. novel object,C57BL/6J mice [2]; any of the test doses (FIG. 39C),unaffected
same,social interactions / close interaction,"C57BL/6J mice [2]; clonazepam single injection, 0-0.1 mg/kg",not altered; also recorded: no effect
same,"social interaction preference, Pre/CLZ/Post protocol",C57BL/6J mice [2],not changed; also recorded: None of these treatments had any significant effect
same,"social interaction preference, Pre/CLZ/Post protocol",C57BL/6J mice [2]; listed as CLZ,does not significantly alter
same,short-term and long-term memory,BTBR mice [3]; 0.0125 mg/kg,no significant effects
same,long-term (24 h) memory,BTBR mice [3]; 0.05 mg/kg,improved
same,short-term (30 min) memory,BTBR mice [3]; 0.05 mg/kg,improved
same,short-term and long-term memory,BTBR mice [3]; 0.1 mg/kg,no significant effects
same,context-dependent fear memory on Day 1 and Day 14,BTBR mice [3]; daily 0.05 mg/kg for 14 days,improved
same,tolerance to effects on cognitive deficit,BTBR mice [3]; daily 0.05 mg/kg for 14 days,does not cause tolerance
same,spatial learning in context-dependent fear conditioning,BTBR mice [3]; low-dose CLZ (FIG. 10),rescued
same,cognitive changes in fear conditioning,"C57BL/6J mice [4]; clonazepam, any dose (0-0.1 mg/kg)",no cognitive changes
same,Effect at GABA-A receptor,"GABA-A receptor; Table 1, exemplary benzodiazepines",Agonist Long- acting
"Cn1ncnc1COc1nn2c(-c3cc(F)ccc3F)nnc2cc1C(C)(C)C [L-838,417]",social interactions in three-chamber test,"Scn1a+/− mice; low doses, narrow dose range (FIGS. 41N, 41O)",improves social interactions
same,social interaction deficit,BTBR mice [1],rescued
same,social behavior (close interaction),BTBR mice [1]; 0.5 mg/kg,disappeared
same,dose at low point of time in the chamber with the inanimate object,BTBR mice [1]; biphasic dose-response,0.05 mg/kg
same,effect on social interaction at doses above the maximally effective dose,BTBR mice [1],lost when the dose increased
same,effect on social interaction at doses above the maximally effective dose,"BTBR mice [1]; listed as L838,417",reduced response
same,dose of maximal effect on social interaction,BTBR mice [1],0.05 mg/kg
same,time of interaction with the inanimate object,BTBR mice [1]; increasing doses,decrease
same,total movement during the three-chamber test at high dose,"BTBR mice [1]; mouse, in vivo",tended to increase
same,"social interaction (time with stranger mouse, close interaction), dose series",BTBR mice [1],increased
same,"social interaction (time with stranger mouse, close interaction), dose series","BTBR mice [1]; listed as L818,417",progressively increase
same,"social behavior, dose series","C57BL/6J mice [2]; L-838,417 / zolpidem (FIGS. 45I, 45J)",not changed; also recorded: did not change
same,long-term (24 h) memory,BTBR mice [3]; 0.05 mg/kg,improved
same,short-term (30 min) memory,BTBR mice [3]; 0.05 mg/kg,improved
same,memory of the spatial context,BTBR mice [3]; 0.05 mg/kg 30 min before training session and 24-h memory session,substantially improved
same,spatial learning behavior (FIG. 13B legend),"BTBR mice [3]; 0.05 mg/kg, legend body prints DS mice, title BTBR mice",substantially rescued
same,memory of the spatial context,"C57BL/6J mice [4]; 0.05 mg/kg L838,417",no effect
same,Effect at GABA receptor,"GABA-A receptor; Table 2, exemplary SS-PAMs","Partial agonist Selective for α2, α3 (and possibly α5) subunits"
